Results from patent publication US20120122860A1, “SOLID FORMS OF SULFONAMIDES AND AMINO ACIDS” (Plexxikon, Inc., priority 2009, published 2012).

How the values were obtained:
B-Raf = B-Raf (Homo sapiens, UniProt P15056); assay: Kinase activity assay, B-Raf; type: biochemical; details: read-out: activity toward kinase B-Raf, IC50
B-Raf V600E = B-Raf V600E (Homo sapiens, UniProt P15056, V600E); assay: Kinase activity assay, B-Raf V600E; type: biochemical; details: read-out: activity toward kinase B-Raf V600E, IC50
Sequence of B-Raf V600E (P15056 whole entry V600E): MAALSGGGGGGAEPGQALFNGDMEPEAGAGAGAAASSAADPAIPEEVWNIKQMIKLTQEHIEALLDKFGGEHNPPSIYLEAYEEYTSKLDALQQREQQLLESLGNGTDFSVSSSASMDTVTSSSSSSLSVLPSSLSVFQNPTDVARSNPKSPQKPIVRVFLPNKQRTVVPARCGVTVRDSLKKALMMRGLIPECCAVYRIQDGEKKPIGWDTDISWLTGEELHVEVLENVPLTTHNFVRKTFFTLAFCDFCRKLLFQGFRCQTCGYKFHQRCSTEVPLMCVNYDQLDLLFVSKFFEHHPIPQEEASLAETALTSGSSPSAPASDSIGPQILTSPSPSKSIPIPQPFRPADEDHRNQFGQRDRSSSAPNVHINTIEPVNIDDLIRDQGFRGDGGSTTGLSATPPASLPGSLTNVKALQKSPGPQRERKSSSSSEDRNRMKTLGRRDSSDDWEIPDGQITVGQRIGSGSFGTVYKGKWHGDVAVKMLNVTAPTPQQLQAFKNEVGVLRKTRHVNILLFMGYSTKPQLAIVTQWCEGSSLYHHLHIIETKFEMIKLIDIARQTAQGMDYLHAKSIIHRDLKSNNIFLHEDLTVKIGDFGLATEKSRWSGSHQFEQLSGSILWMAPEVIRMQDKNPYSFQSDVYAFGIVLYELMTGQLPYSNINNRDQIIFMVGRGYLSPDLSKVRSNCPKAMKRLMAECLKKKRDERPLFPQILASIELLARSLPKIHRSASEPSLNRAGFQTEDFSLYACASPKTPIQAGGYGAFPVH

C-Raf = C-Raf (Homo sapiens, UniProt P04049); assay: Kinase activity assay, C-Raf
Sequence of C-Raf (P04049 whole entry): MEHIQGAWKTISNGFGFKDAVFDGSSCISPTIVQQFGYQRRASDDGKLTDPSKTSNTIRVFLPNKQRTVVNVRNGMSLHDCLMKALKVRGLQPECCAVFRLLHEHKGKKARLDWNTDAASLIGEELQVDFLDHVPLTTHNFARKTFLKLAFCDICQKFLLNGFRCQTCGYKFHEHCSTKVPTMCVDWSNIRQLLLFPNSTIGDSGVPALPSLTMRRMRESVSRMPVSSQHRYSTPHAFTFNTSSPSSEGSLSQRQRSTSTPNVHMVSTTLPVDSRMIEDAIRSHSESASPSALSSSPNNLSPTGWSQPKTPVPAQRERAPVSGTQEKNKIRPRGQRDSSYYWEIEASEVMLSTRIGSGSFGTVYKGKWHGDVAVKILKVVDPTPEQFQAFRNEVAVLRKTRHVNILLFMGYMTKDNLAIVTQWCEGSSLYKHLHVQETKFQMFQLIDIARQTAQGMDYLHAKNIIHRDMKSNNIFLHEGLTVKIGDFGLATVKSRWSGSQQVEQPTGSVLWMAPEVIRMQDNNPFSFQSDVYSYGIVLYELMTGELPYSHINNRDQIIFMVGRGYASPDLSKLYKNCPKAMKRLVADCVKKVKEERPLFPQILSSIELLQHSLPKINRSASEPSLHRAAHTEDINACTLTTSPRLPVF

Kdr = Kdr (Homo sapiens, UniProt P35968); assay: Kinase activity assay, Kdr
Sequence of Kdr (P35968 20-1356): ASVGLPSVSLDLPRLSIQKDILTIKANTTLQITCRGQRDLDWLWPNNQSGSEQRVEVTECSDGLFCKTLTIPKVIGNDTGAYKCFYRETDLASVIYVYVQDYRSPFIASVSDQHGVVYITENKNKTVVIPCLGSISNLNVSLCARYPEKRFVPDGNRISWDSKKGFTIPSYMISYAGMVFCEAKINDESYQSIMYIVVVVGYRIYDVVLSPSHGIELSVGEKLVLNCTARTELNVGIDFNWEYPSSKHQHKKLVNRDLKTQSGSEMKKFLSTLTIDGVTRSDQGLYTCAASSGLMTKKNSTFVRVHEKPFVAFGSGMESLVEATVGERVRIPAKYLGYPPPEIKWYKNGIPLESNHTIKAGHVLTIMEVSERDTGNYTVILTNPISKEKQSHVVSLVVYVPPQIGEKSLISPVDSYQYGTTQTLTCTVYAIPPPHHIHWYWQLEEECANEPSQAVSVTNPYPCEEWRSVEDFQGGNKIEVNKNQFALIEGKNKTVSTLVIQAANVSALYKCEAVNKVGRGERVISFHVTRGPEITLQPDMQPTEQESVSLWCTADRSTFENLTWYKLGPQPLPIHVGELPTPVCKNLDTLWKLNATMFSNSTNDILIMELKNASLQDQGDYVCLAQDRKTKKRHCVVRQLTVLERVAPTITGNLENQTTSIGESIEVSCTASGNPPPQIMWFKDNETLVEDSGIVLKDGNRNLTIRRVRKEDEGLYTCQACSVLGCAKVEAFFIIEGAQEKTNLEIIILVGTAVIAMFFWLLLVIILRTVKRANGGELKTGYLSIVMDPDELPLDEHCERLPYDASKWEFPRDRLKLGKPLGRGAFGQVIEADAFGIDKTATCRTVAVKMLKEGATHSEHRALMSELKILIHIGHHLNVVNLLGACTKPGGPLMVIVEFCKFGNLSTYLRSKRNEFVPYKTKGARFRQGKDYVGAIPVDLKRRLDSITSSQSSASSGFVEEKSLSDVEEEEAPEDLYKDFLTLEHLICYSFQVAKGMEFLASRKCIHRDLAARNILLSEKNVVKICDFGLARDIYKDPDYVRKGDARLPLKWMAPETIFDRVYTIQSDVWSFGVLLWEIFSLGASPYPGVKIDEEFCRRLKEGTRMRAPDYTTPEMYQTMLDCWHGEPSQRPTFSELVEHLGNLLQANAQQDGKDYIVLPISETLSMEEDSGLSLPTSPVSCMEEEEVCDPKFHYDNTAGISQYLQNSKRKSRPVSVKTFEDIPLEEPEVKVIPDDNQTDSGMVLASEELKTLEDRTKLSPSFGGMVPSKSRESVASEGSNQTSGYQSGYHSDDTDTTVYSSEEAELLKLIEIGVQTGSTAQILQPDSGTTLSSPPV

Kit = Kit (Homo sapiens, UniProt P10721); assay: Kinase activity assay, Kit
Sequence of Kit (P10721 26-976): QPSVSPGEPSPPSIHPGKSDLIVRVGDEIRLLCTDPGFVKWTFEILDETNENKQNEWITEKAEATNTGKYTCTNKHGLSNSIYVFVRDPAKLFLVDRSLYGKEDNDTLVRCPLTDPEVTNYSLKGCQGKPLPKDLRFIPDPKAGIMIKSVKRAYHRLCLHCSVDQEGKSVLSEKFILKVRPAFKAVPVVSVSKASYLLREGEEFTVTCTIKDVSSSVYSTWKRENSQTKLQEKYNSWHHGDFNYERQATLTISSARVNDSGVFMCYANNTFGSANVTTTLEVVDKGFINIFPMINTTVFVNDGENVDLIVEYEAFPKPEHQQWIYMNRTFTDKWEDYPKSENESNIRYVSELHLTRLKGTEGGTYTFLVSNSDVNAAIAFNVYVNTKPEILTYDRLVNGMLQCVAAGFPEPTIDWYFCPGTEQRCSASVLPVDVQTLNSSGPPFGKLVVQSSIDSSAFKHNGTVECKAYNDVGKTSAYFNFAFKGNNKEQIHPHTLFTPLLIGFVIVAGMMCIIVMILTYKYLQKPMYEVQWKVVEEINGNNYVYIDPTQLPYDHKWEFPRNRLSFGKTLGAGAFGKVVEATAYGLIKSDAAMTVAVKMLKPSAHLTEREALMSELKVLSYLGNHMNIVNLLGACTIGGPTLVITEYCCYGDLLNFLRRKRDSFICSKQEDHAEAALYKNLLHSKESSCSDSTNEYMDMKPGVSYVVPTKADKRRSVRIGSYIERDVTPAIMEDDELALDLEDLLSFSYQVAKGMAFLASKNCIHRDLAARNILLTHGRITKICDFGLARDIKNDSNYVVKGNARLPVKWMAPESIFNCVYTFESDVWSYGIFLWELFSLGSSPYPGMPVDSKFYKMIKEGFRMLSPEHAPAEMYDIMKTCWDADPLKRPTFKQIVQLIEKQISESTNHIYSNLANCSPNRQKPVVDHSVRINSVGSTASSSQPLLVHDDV

Sequence of B-Raf (P15056 whole entry): as the sequence (P15056 whole entry V600E) above, with E600V counted along it

IC50 (B-Raf)	IC50 (B-Raf V600E)	IC50 (C-Raf)	IC50 (Kdr)	IC50 (Kit)	SMILES
≤ 10 µM	≤ 10 µM	≤ 10 µM			N#Cc1cnc2[nH]cc(C(=O)c3c(F)ccc(NS(=O)(=O)c4ccc(F)cc4)c3F)c2c1 [P-2028, N-[3-(5-Cyano-1H-pyrrolo[2,3-b]pyridine-3-carbonyl)-2,4-difluoro-phenyl]-4-fluoro-benzenesulfonamide]
≤ 10 µM	≤ 10 µM	≤ 10 µM			N#Cc1cnc2[nH]cc(C(=O)c3cccc(NS(=O)(=O)c4ccc(F)cc4)c3F)c2c1 [P-2050, N-[3-(5-Cyano-1H-pyrrolo[2,3-b]pyridine-3-carbonyl)-2-fluoro-phenyl]-4-fluoro-benzenesulfonamide]
	≤ 10 µM	≤ 10 µM			COc1ccnc2[nH]cc(C(=O)c3c(F)ccc(NS(=O)(=O)c4ncn[nH]4)c3F)c12 [P-2068, 2H-[1,2,4]Triazole-3-sulfonic acid [2,4-difluoro-3-(4-methoxy-1H-pyrrolo[2,3-b]pyridine-3-carbonyl)-phenyl]-amide]
	≤ 10 µM	≤ 10 µM	≤ 10 µM		Cc1oncc1S(=O)(=O)Nc1ccc(F)c(C(=O)c2c[nH]c3ncc(C#N)cc23)c1F [P-2081, 5-Methyl-isoxazole-4-sulfonic acid [3-(5-cyano-1H-pyrrolo[2,3-b]pyridine-3-carbonyl)-2,4-difluoro-phenyl]-amide]
	≤ 10 µM	≤ 10 µM			CCn1cc(S(=O)(=O)Nc2ccc(F)c(C(=O)c3c[nH]c4ncc(C#N)cc34)c2F)cn1 [P-2083, 1-Ethyl-1H-pyrazole-4-sulfonic acid [3-(5-cyano-1H-pyrrolo[2,3-b]pyridine-3-carbonyl)-2,4-difluoro-phenyl]-amide]
≤ 10 µM	≤ 10 µM	≤ 10 µM			Cn1cc(S(=O)(=O)Nc2ccc(F)c(C(=O)c3c[nH]c4ncc(C#N)cc34)c2F)cn1 [P-2084, 1-Methyl-1H-pyrazole-4-sulfonic acid [3-(5-cyano-1H-pyrrolo[2,3-b]pyridine-3-carbonyl)-2,4-difluoro-phenyl]-amide]
≤ 10 µM	≤ 10 µM	≤ 10 µM			COc1ccc(S(=O)(=O)Nc2ccc(F)c(C(=O)c3c[nH]c4ncc(C#N)cc34)c2F)cn1 [P-2085, 6-Methoxy-pyridine-3-sulfonic acid [3-(5-cyano-1H-pyrrolo[2,3-b]pyridine-3-carbonyl)-2,4-difluoro-phenyl]-amide]
	≤ 10 µM	≤ 10 µM	≤ 10 µM		CCn1cc(S(=O)(=O)Nc2cccc(C(=O)c3c[nH]c4ncc(C#N)cc34)c2F)cn1 [P-2089, 1-Ethyl-1H-pyrazole-4-sulfonic acid [3-(5-cyano-1H-pyrrolo[2,3-b]pyridine-3-carbonyl)-2-fluoro-phenyl]-amide]
≤ 10 µM	≤ 10 µM	≤ 10 µM			Cn1cc(S(=O)(=O)Nc2cccc(C(=O)c3c[nH]c4ncc(C#N)cc34)c2F)cn1 [P-2090, 1-Methyl-1H-pyrazole-4-sulfonic acid [3-(5-cyano-1H-pyrrolo[2,3-b]pyridine-3-carbonyl)-2-fluoro-phenyl]-amide]
	≤ 10 µM	≤ 10 µM			COc1ccc(S(=O)(=O)Nc2cccc(C(=O)c3c[nH]c4ncc(C#N)cc34)c2F)cn1 [P-2092, 6-Methoxy-pyridine-3-sulfonic acid [3-(5-cyano-1H-pyrrolo[2,3-b]pyridine-3-carbonyl)-2-fluoro-phenyl]-amide]
	≤ 10 µM		≤ 10 µM	≤ 10 µM	N#Cc1cnc2[nH]cc(C(=O)c3c(F)ccc(NS(=O)(=O)Cc4cccnc4)c3F)c2c1 [P-2094, N-[3-(5-Cyano-1H-pyrrolo[2,3-b]pyridine-3-carbonyl)-2,4-difluoro-phenyl]-C-pyridin-3-yl-methanesulfonamide]
≤ 10 µM			≤ 10 µM	≤ 10 µM	O=C(c1cc(NS(=O)(=O)c2ccc(OC(F)(F)F)cc2)ccc1F)c1c[nH]c2ncc(Cl)cc12 [P-2109, N-[3-(5-Chloro-1H-pyrrolo[2,3-b]pyridine-3-carbonyl)-4-fluoro-phenyl]-4-trifluoromethoxy-benzenesulfonamide]
≤ 10 µM	≤ 10 µM		≤ 10 µM		CCCS(=O)(=O)Nc1ccc(F)c(C(=O)c2c[nH]c3ncc(-c4cnc(N5CCOCC5)nc4)cc23)c1F [P-2197, Propane-1-sulfonic acid {2,4-difluoro-3-[5-(2-morpholin-4-yl-pyrimidin-5-yl)-1H-pyrrolo[2,3-b]pyridine-3-carbonyl]-phenyl}-amide]
≤ 10 µM	≤ 10 µM	≤ 10 µM	≤ 10 µM		CCCS(=O)(=O)Nc1ccc(F)c(C(=O)c2c[nH]c3ncc(-c4ccc(S(=O)(=O)N5CCCC5)cc4)cc23)c1F [P-2227, Propane-1-sulfonic acid (2,4-difluoro-3-{5-[4-(pyrrolidine-1-sulfonyl)-phenyl]-1H-pyrrolo[2,3-b]pyridine-3-carbonyl}-phenyl)-amide]
≤ 10 µM	≤ 10 µM	≤ 10 µM	≤ 10 µM		CCS(=O)(=O)Nc1ccc(F)c(C(=O)c2c[nH]c3ncc(C#N)cc23)c1F [P-2281, Ethanesulfonic acid [3-(5-cyano-1H-pyrrolo[2,3-b]pyridine-3-carbonyl)-2,4-difluoro-phenyl]-amide]
	≤ 10 µM	≤ 10 µM	≤ 10 µM		CS(=O)(=O)Nc1ccc(F)c(C(=O)c2c[nH]c3ncc(C#N)cc23)c1F [P-2294, N-[3-(5-Cyano-1H-pyrrolo[2,3-b]pyridine-3-carbonyl)-2,4-difluoro-phenyl]-methanesulfonamide]
≤ 10 µM	≤ 10 µM	≤ 10 µM	≤ 10 µM		CCCS(=O)(=O)Nc1cccc(C(=O)c2c[nH]c3ncc(C)cc23)c1F [P-2403, Propane-1-sulfonic acid [2-fluoro-3-(5-methyl-1H-pyrrolo[2,3-b]pyridine-3-carbonyl)-phenyl]-amide]
≤ 10 µM	≤ 10 µM	≤ 10 µM	≤ 10 µM		CCCS(=O)(=O)Nc1cccc(C(=O)c2c[nH]c3nccc(C#N)c23)c1F [P-2409, Propane-1-sulfonic acid [3-(4-cyano-1H-pyrrolo[2,3-b]pyridine-3-carbonyl)-2-fluoro-phenyl]-amide]
	≤ 10 µM	≤ 10 µM			CC(C)S(=O)(=O)Nc1cccc(C(=O)c2c[nH]c3ncc(C#N)cc23)c1F [P-2411, Propane-2-sulfonic acid [3-(5-cyano-1H-pyrrolo[2,3-b]pyridine-3-carbonyl)-2-fluoro-phenyl]-amide]
≤ 10 µM	≤ 10 µM	≤ 10 µM			CC(C)CS(=O)(=O)Nc1cccc(C(=O)c2c[nH]c3ncc(C#N)cc23)c1F [P-2412, 2-Methyl-propane-1-sulfonic acid [3-(5-cyano-1H-pyrrolo[2,3-b]pyridine-3-carbonyl)-2-fluoro-phenyl]-amide]
≤ 10 µM	≤ 10 µM	≤ 10 µM			CCC(C)S(=O)(=O)Nc1cccc(C(=O)c2c[nH]c3ncc(C#N)cc23)c1F (stereo not shown) [P-2413, Butane-2-sulfonic acid [3-(5-cyano-1H-pyrrolo[2,3-b]pyridine-3-carbonyl)-2-fluoro-phenyl]-amide]
≤ 10 µM	≤ 10 µM	≤ 10 µM			N#Cc1cnc2[nH]cc(C(=O)c3cccc(NS(=O)(=O)CCC(F)(F)F)c3F)c2c1 [P-2415, 3,3,3-Trifluoro-propane-1-sulfonic acid [3-(5-cyano-1H-pyrrolo[2,3-b]pyridine-3-carbonyl)-2-fluoro-phenyl]-amide]
≤ 10 µM	≤ 10 µM	≤ 10 µM			N#Cc1cnc2[nH]cc(C(=O)c3cccc(NS(=O)(=O)C4CCCCC4)c3F)c2c1 [P-2416, Cyclohexanesulfonic acid [3-(5-cyano-1H-pyrrolo[2,3-b]pyridine-3-carbonyl)-2-fluoro-phenyl]-amide]
≤ 10 µM	≤ 10 µM	≤ 10 µM			N#Cc1cnc2[nH]cc(C(=O)c3cccc(NS(=O)(=O)C4CCC4)c3F)c2c1 [P-2418, Cyclobutanesulfonic acid [3-(5-cyano-1H-pyrrolo[2,3-b]pyridine-3-carbonyl)-2-fluoro-phenyl]-amide]
	≤ 10 µM			≤ 10 µM	CN(C)S(=O)(=O)Nc1cccc(C(=O)c2c[nH]c3ncc(C#N)cc23)c1F [P-2419, N,N-dimethylamino-sulfonic acid [3-(5-cyano-1H-pyrrolo[2,3-b]pyridine-3-carbonyl)-2-fluoro-phenyl]-amide]
	≤ 10 µM	≤ 10 µM			N#Cc1cnc2[nH]cc(C(=O)c3cccc(NS(=O)(=O)N4CCOCC4)c3F)c2c1 [P-2421, Morpholine-4-sulfonic acid [3-(5-cyano-1H-pyrrolo[2,3-b]pyridine-3-carbonyl)-2-fluoro-phenyl]-amide]
≤ 10 µM	≤ 10 µM	≤ 10 µM	≤ 10 µM		COc1ncc(-c2cnc3[nH]cc(C(=O)c4cccc(NS(=O)(=O)N5CCCC5)c4F)c3c2)cn1 [P-2422, Pyrrolidine-1-sulfonic acid {2-fluoro-3-[5-(2-methoxy-pyrimidin-5-yl)-1H-pyrrolo[2,3-b]pyridine-3-carbonyl]-phenyl}-amide]
	≤ 10 µM	≤ 10 µM	≤ 10 µM		COc1ncc(-c2cnc3[nH]cc(C(=O)c4cccc(NS(=O)(=O)N(C)C)c4F)c3c2)cn1 [P-2424, N,N-dimethylamino-sulfonic acid {2-fluoro-3-[5-(2-methoxy-pyrimidin-5-yl)-1H-pyrrolo[2,3-b]pyridine-3-carbonyl]-phenyl}-amide]
		≤ 10 µM	≤ 10 µM		O=C(c1c(F)ccc(NS(=O)(=O)c2ccc(C(F)(F)F)cc2)c1F)c1c[nH]c2ncc(C3CC3)cc12 [P-2483, N-[3-(5-Cyclopropyl-1H-pyrrolo[2,3-b]pyridine-3-carbonyl)-2,4-difluoro-phenyl]-4-trifluoromethyl-benzenesulfonamide]
